# Target: T1, CCDC6-RET fusion (Homo sapiens, UniProt P07949+Q16204+Q96SW2)
# T1 construct: CCDC6 (N-terminal fusion partner from the natural gene rearrangement, Q16204); endogenous in cells; host or cells: TPC-1 (parental) papillary thyroid carcinoma cells
# Test: Cellular RET degradation assay (AlphaLISA Surefire Ultra, TPC-1 cells)
# Format: cell-based
# Conditions: half-maximal degradation concentration (DC50); parental TPC-1/CCDC6-RET cell line; 24 hrs compound treatment; AlphaLISA luminescence; read-out: Cell Density TPC-1/CCDC6-RET IC50
# Protocol: Cellular RET degradation compound potency was determined using the bead-based luminescent amplification assay—AlphaLISA Surefire Ultra Detection Kit (Perkin-Elmer). The CCDC6-RET fusion expressing papillary thyroid carcinoma (TPC-1) cell line was selected for screening of potential degraders: Parental (TPC-1/CCDC6-RET). Cells were plated in 384 well culture plates (Greiner Bio-One) at 10,000 cells/well in 50 ul/well DMEM (Fisher Scientific) with 2% FBS serum (Gibco). […] Low normalization wells were media only and high normalization wells were cells treated with DMSO only. Treated cell plates were placed in an incubator at 37C and 5% CO2 for 24 hrs. At 24 hrs, cell media was removed by a FELIX automated liquid hander (Analytik Jena) and 25 ul of cell lysis buffer (provided in AlphaLisa kit) was added to each well. 5 ul cell lysate were transferred into a 384-well microplate (Perkin Elmer) before addition of 2.5 ul AlphaLISA Acceptor Bead mix. The plates were sealed and kept at room temperature for 1 hr before addition of donor bead mixture. Donor bead addition was performed in the dark and incubated for >1 hr before AlphaLISA luminescence was measured on an Envision plate reader with an Alphascreen aperture at RT (excitation 680 nm, emission 615 nm). RET protein abundance (and therefore degradation) directly corresponds to luminescence intensity.
# Intensities were normalized relative to the average values from 16 wells containing media alone (blank-low) and 16 wells containing cells+DMSO (high). % Degradation for each well was determined using the standard equation, where
# DC50 (IC50) values for each compound tested are calculated by analyzing plots of % degradation versus compound concentration, and fitting to the standard 4-parameter logistic curve where,
# Top and bottom are the % degradation at infinitely large and infinitely small compound concentrations, respectively, while Halfmax is the compound concentration yielding % degradation corresponding to ½ Top-Bottom, and N is the Hill coefficient. DC50 values are calculated according to the relationship,
# Compound replicates were performed in independent assays. Maximum degradation (YMax) was defined as the maximal % degradation value from the 4-parameter logistic equation, as previously described.
# T1 sequence (Q16204+P07949 fused): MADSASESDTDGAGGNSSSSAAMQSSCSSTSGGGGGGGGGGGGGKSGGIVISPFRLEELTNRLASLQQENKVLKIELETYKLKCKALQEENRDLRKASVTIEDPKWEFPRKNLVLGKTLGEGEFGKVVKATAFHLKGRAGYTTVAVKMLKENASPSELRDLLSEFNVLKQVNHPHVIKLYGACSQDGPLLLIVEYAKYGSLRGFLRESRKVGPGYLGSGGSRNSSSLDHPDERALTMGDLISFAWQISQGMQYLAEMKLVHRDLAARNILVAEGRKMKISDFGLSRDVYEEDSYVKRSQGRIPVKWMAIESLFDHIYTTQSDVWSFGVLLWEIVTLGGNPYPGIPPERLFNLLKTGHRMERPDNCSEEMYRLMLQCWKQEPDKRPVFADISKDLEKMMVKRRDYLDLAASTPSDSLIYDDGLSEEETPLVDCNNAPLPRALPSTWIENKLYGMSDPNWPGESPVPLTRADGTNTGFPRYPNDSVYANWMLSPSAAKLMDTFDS
# T1 sequence (Q96SW2 whole entry, the tested form may be a part): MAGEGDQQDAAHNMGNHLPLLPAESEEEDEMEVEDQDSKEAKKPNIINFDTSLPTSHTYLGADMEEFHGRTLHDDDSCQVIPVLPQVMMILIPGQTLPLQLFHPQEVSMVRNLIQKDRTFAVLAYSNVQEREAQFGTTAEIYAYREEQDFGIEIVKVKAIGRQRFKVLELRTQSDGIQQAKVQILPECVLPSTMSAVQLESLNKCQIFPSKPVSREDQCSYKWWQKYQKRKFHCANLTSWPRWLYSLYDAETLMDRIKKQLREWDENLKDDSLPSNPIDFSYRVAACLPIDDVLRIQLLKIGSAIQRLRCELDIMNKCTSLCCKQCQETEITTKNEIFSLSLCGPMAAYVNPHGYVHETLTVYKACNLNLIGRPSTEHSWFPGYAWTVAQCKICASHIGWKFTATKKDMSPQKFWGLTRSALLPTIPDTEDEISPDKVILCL
row,SMILES,DC50
1,"Nc1ncnc2c1c(-c1noc(C3CC3)c1-c1ccccn1)nn2[C@H]1C[C@H](C(=O)NCCCCNc2ccc(C3CCC(=O)NC3=O)cc2)C1 (stereo partly drawn) [Example A11, (1r,3r)-3-{4-amino-3-[5-cyclopropyl-4-(pyridin-2-yl)-1,2-oxazol-3-yl]-1H-pyrazolo[3,4-d]pyrimidin-1-yl}-N-(4-{[4-(2,6-dioxopiperidin-3-yl)phenyl]amino}butyl) cyclobutane-1-carboxamide]",57.6 nM
2,"Nc1ncnc2c1c(-c1noc(C3CC3)c1-c1ccccn1)nn2[C@H]1C[C@H](C(=O)NCCCCN2CCN(c3ccc4c(c3)CN(C3CCC(=O)NC3=O)C4=O)CC2)C1 (stereo partly drawn) [Example A2, (1r,3r)-3-{4-amino-3-[5-cyclopropyl-4-(pyridin-2-yl)-1,2-oxazol-3-yl]-1H-pyrazolo[3,4-d]pyrimidin-1-yl}-N-(4-{4-[2-(2,6-dioxopiperidin-3-yl)-1-oxo-2,3-dihydro-1H-isoindol-5-yl]piperazin-1-yl}butyl)cyclobutane-1-carboxamide]",3.17 nM
3,"Nc1ncnc2c1c(-c1noc(C3CC3)c1-c1ccccn1)nn2[C@H]1C[C@H](C(=O)NCCCCN2CCC(c3ccc4c(c3)C(=O)N(C3CCC(=O)NC3=O)C4)CC2)C1 (stereo partly drawn) [Example A8, (1r,3r)-3-{4-amino-3-[5-cyclopropyl-4-(pyridin-2-yl)-1,2-oxazol-3-yl]-1H-pyrazolo[3,4-d]pyrimidin-1-yl}-N-(4-{4-[2-(2,6-dioxopiperidin-3-yl)-3-oxo-2,3-dihydro-1H-isoindol-5-yl]piperidin-1-yl}butyl)cyclobutane-1-carboxamide]",17.4 nM
4,"CC(C)n1nc(-c2noc(C3CC3)c2-c2cn(C3CCN(C(=O)CCCCCCN4CCN(c5ccc6c(c5)CN(C5CCC(=O)NC5=O)C6=O)CC4)CC3)cn2)c2c(N)ncnc21 (stereo not drawn) [Example A12, 3-[5-(4-{7-[4-(4-{3-[4-amino-1-(propan-2-yl)-1H-pyrazolo[3,4-d]pyrimidin-3-yl]-5-cyclopropyl-1,2-oxazol-4-yl}-1H-imidazol-1-yl)piperidin-1-yl]-7-oxoheptyl}piperazin-1-yl)-1-oxo-2,3-dihydro-1H-isoindol-2-yl]piperidine-2,6-dione]",1.77 nM
5,"Nc1ncnc2c1c(-c1noc(C3CC3)c1-c1ccccn1)nn2[C@H]1C[C@H](C(=O)NCCCCCCN2CCC(c3ccc4c(c3)CN(C3CCC(=O)NC3=O)C4=O)CC2)C1 (stereo partly drawn) [Example A5, (1r,3r)-3-{4-amino-3-[5-cyclopropyl-4-(pyridin-2-yl)-1,2-oxazol-3-yl]-1H-pyrazolo[3,4-d]pyrimidin-1-yl}-N-(6-{4-[2-(2,6-dioxopiperidin-3-yl)-1-oxo-2,3-dihydro-1H-isoindol-5-yl]piperidin-1-yl}hexyl)cyclobutane-1-carboxamide]",9.27 nM
6,"Nc1ncnc2c1c(-c1noc(C3CC3)c1-c1ccccn1)nn2[C@H]1C[C@H](C(=O)NCCCCN2CCC(c3ccc4c(c3)CN(C3CCC(=O)NC3=O)C4=O)CC2)C1 (stereo partly drawn) [Example A4, (1r,3r)-3-{4-amino-3-[5-cyclopropyl-4-(pyridin-2-yl)-1,2-oxazol-3-yl]-1H-pyrazolo[3,4-d]pyrimidin-1-yl}-N-(4-{4-[2-(2,6-dioxopiperidin-3-yl)-1-oxo-2,3-dihydro-1H-isoindol-5-yl]piperidin-1-yl}butyl) cyclobutane-1-carboxamide]",6.51 nM
7,"Nc1ncnc2c1c(-c1noc(C3CC3)c1-c1ccccn1)nn2[C@H]1C[C@H](C(=O)NCCCCN2CCN(c3ccc4c(c3)C(=O)N(C3CCC(=O)NC3=O)C4)CC2)C1 (stereo partly drawn) [Example A6, (1r,3r)-3-{4-amino-3-[5-cyclopropyl-4-(pyridin-2-yl)-1,2-oxazol-3-yl]-1H-pyrazolo[3,4-d]pyrimidin-1-yl}-N-(4-{4-[2-(2,6-dioxopiperidin-3-yl)-3-oxo-2,3-dihydro-1H-isoindol-5-yl]piperazin-1-yl}butyl) cyclobutane-1-carboxamide]",6.42 nM
8,"Nc1ncnc2c1c(-c1noc(C3CC3)c1-c1ccccn1)nn2[C@H]1C[C@H](C(=O)NCCN2CCC(c3ccc4c(c3)CN(C3CCC(=O)NC3=O)C4=O)CC2)C1 (stereo partly drawn) [Example A3, (1r,3r)-3-{4-amino-3-[5-cyclopropyl-4-(pyridin-2-yl)-1,2-oxazol-3-yl]-1H-pyrazolo[3,4-d]pyrimidin-1-yl}-N-(2-{4-[2-(2,6-dioxopiperidin-3-yl)-1-oxo-2,3-dihydro-1H-isoindol-5-yl]piperidin-1-yl}ethyl)cyclobutane-1-carboxamide]",10.2 nM
9,"Nc1ncnc2c1c(-c1noc(C3CC3)c1-c1ccccn1)nn2[C@H]1C[C@H](C(=O)NCCCCCCN2CCC(c3ccc4c(c3)C(=O)N(C3CCC(=O)NC3=O)C4)CC2)C1 (stereo partly drawn) [Example A9, (1r,3r)-3-{4-amino-3-[5-cyclopropyl-4-(pyridin-2-yl)-1,2-oxazol-3-yl]-1H-pyrazolo[3,4-d]pyrimidin-1-yl}-N-(6-{4-[2-(2,6-dioxopiperidin-3-yl)-3-oxo-2,3-dihydro-1H-isoindol-5-yl]piperidin-1-yl}hexyl)cyclobutane-1-carboxamide]",22 nM
10,"Nc1ncnc2c1c(-c1noc(C3CC3)c1-c1ccccn1)nn2[C@H]1C[C@H](C(=O)NCCCCCCN2CCN(c3ccc4c(c3)C(=O)N(C3CCC(=O)NC3=O)C4)CC2)C1 (stereo partly drawn) [Example A7, (1r,3r)-3-{4-amino-3-[5-cyclopropyl-4-(pyridin-2-yl)-1,2-oxazol-3-yl]-1H-pyrazolo[3,4-d]pyrimidin-1-yl}-N-(6-{4-[2-(2,6-dioxopiperidin-3-yl)-3-oxo-2,3-dihydro-1H-isoindol-5-yl]piperazin-1-yl}hexyl) cyclobutane-1-carboxamide]",5.32 nM

# Results, then the molecule that gave them:
row,DC50,SMILES
1,2.02 nM,"CC(C)n1nc(-c2noc(C3CC3)c2-c2cn(C3CCN(C(=O)CCCCCCN4CCC(c5ccc6c(c5)CN(C5CCC(=O)NC5=O)C6=O)CC4)CC3)cn2)c2c(N)ncnc21 (stereo not drawn) [Example A14, 3-[5-(1-{7-[4-(4-{3-[4-amino-1-(propan-2-yl)-1H-pyrazolo[3,4-d]pyrimidin-3-yl]-5-cyclopropyl-1,2-oxazol-4-yl}-1H-imidazol-1-yl)piperidin-1-yl]-7-oxoheptyl}piperidin-4-yl)-1-oxo-2,3-dihydro-1H-isoindol-2-yl]piperidine-2,6-dionc]"
2,43.2 nM,"CC(C)n1nc(-c2noc(C3CC3)c2-c2cn(C3CCN(C(=O)CCCCN4CCC(c5ccc6c(c5)C(=O)N(C5CCC(=O)NC5=O)C6)CC4)CC3)cn2)c2c(N)ncnc21 (stereo not drawn) [Example A17, 3-[6-(1-{5-[4-(4-{3-[4-amino-1-(propan-2-yl)-1H-pyrazolo[3,4-d]pyrimidin-3-yl]-5-cyclopropyl-1,2-oxazol-4-yl}-1H-imidazol-1-yl)piperidin-1-yl]-5-oxopentyl}piperidin-4-yl)-1-oxo-2,3-dihydro-1H-isoindol-2-yl]piperidine-2,6-dione]"
3,4.88 nM,COC1(C(=O)N[C@@H](CCCNC(=O)CCCCCCCCNc2cccc(C3CCC(=O)NC3=O)c2)c2ccc(-n3cc(F)cn3)nc2)CCN(c2nc(C)cc(Nc3cc(C)[nH]n3)n2)CC1 (stereo partly drawn) [Example A29]
4,27.8 nM,"CC(C)n1nc(-c2noc(C3CC3)c2C2CCN(C(=O)CCCCCCN3CCN(c4ccc5c(c4)C(=O)N(C4CCC(=O)NC4=O)C5)CC3)CC2)c2c(N)ncnc21 (stereo not drawn) [Example A19, 3-(6-{4-[7-(4-{3-[4-amino-1-(propan-2-yl)-1H-pyrazolo[3,4-d]pyrimidin-3-yl]-5-cyclopropyl-1,2-oxazol-4-yl}piperidin-1-yl)-7-oxoheptyl]piperazin-1-yl}-1-oxo-2,3-dihydro-1H-isoindol-2-yl)piperidine-2,6-dione]"
5,13.2 nM,"COC1(C(=O)N[C@@H](CCCNC(=O)CCCCCCN2CCN(c3ccc4c(c3)CN(C3CCC(=O)NC3=O)C4=O)CC2)c2ccc(-n3cc(F)cn3)nc2)CCN(c2nc(C)cc(Nc3cc(C)[nH]n3)n2)CC1 (stereo partly drawn) [Example A34, 7-{4-[2-(2,6-dioxopiperidin-3-yl)-1-oxo-2,3-dihydro-1H-isoindol-5-yl]piperazin-1-yl}-N-[(4S)-4-[6-(4-fluoro-1H-pyrazol-1-yl)pyridin-3-yl]-4-[(4-methoxy-1-{4-methyl-6-[(5-methyl-1H-pyrazol-3-yl)amino]pyrimidin-2-yl}piperidin-4-yl)formamido]butyl] heptanamide]"

# — US20260232673A1, “ISOINDOLINONE GLUTARIMIDE AND PHENYL GLUTARIMIDE ANALOGS AS DEGRADERS OF RET KINASE” (Bristol-Myers Squibb Company, priority 2023, published 2026)
